{"source": "patent US11576979B2", "about": "“Pyrrolobenzodiazepine prodrugs and antibody conjugates thereof” (GENENTECH, INC., priority 2016, dated 2023)", "assay_type_in_all_cases": "cell-based", "key": {"KPL-4": {"tested_on": "KPL-4", "assay": "CELLTITER GLO cell proliferation assay (Example 6)", "details": "data in parenthesis = repeat evaluations, read-out: IC50 potency KPL-4", "how_it_was_run": "(§1)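 Cells seeded at about 8000 (WSU-DLCL2) or 4000 (KPL-4) per well in RPMI-1640 with 10% FBS, 2 mM glutamine, 50 uM cystine and 0.015 g/L L-methionine; 10-point 1:3 dose-response in triplicate, cultured at 37° C., 5% CO2. Viability read by CellTiter-Glo luminescence, normalized to no-compound minus no-cell controls.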"}, "WSU-DLCL2": {"tested_on": "WSU-DLCL2", "assay": "CELLTITER GLO cell proliferation assay (Example 6)", "details": "data in parenthesis = repeat evaluations, read-out: IC50 potency WSU-DLCL2", "how_it_was_run": "as §1"}, "A2058": {"tested_on": "A2058", "assay": "CellTiter-Glo toxicity, 4 days (Example 9)", "details": "Homo sapiens, A2058, 96 h, 4 days of drug incubation; Table 7A", "how_it_was_run": "(§2)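 Cells were seeded in 384-well plates, dosed 24 h later and incubated with drug for 4 days. Viability was read as ATP luminescence by CellTiter-Glo and normalised to untreated controls. IC50 is the concentration giving 50% of maximum cell killing.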"}, "UACC-257": {"tested_on": "UACC-257", "assay": "CellTiter-Glo toxicity, 4 days (Example 9)", "details": "Homo sapiens, UACC-257, 96 h, 4 days of drug incubation; Table 7A", "how_it_was_run": "as §2"}, "Igrov-1": {"tested_on": "Igrov-1", "assay": "CellTiter-Glo toxicity, 4 days (Example 9)", "details": "Homo sapiens, IGROV-1, 96 h, 4 days of drug incubation; Table 7A", "how_it_was_run": "as §2"}}, "note": "Where two headings read alike, the source gives them in different places.", "data": [{"smiles": "C=C1C[C@H]2C=Nc3cc(OC)c(OC)cc3C(=O)N2C1", "note": "[PBD monomer control 1, reference compound]", "values": [{"measurement": "IC50", "setting": "KPL-4; KPL4, Table 4", "result": 330, "unit": "nM"}, {"measurement": "IC50", "setting": "KPL-4; Table 4", "result": 241, "unit": "nM"}, {"measurement": "IC50", "setting": "WSU-DLCL2; Homo sapiens, WSUDLCL2, Table 4", "result": 106, "unit": "nM"}, {"measurement": "IC50", "setting": "WSU-DLCL2; Table 4", "result": 109, "unit": "nM"}, {"measurement": "IC50", "setting": "A2058", "result": 56.9, "unit": "nM"}, {"measurement": "IC50", "setting": "UACC-257", "result": 181, "unit": "nM"}, {"measurement": "IC50", "setting": "Igrov-1", "result": 68.5, "unit": "nM"}]}]}
